Values after ≈ are worked out from the molar mass of the structure shown.
Legend:
[1] = aqueous solubility as stated for drugs and organic acids

Compound `CC(C(=O)O)c1ccc2c(c1)[nH]c1ccc(Cl)cc12` (stereo not shown) [Drug 6, carprofen] has a solubility ([1]; pH 5.9, aqueous buffer) of roughly 15 µg/mL (≈ 54.8 µM).

In the case of `O=C1Cc2cc(CCN3CCN(c4nsc5ccccc45)CC3)c(Cl)cc2N1` [Drug 5], the solubility ([1]; model fasted duodenal solution) is reported as 3 µg/mL (≈ 7.26 µM).

Work on `O=C(N[C@@H](Cc1ccccc1)[C@@H](O)C(=O)N1C[C@@H](O)[C@@H](O)C1)c1cc2cc(Cl)ccc2[nH]1` [Drug 4, 5-chloro-1H-indole-2-carboxylic acid [(1S)-benzyl-3-((3R,4S)-dihydroxypyrrolidin-1-yl-)-(2R)-hydroxy-3-oxypropyl]amide] yielded a water solubility ([1]; water) of 80 µg/mL (≈ 175 µM).

`NC(=O)N1C(=O)/C(=C(\O)c2cccs2)c2cc(Cl)ccc21` [Drug 7, Tenidap] showed a solubility (physchem; pH 3.7, aqueous buffer) of 2 µg/mL (≈ 6.24 µM) and a solubility (physchem; pH 7.4, aqueous buffer) of 200 µg/mL (≈ 624 µM).

“4-[3-[4-(2-methylimidazol-1-yl)phenylthio]phenyl]-3,4,5,6-tetrahydro-2H-pyran-4-carboxamide hemifumarate [Drug 3]” showed a solubility ([1]; pH 4) of 3.7 mgA/mL.

In the case of `CCCc1nn(C)c2c(=O)[nH]c(-c3cc(S(=O)(=O)N4CCN(C)CC4)ccc3OCC)nc12` [Drug 1, 1-[4-ethoxy-3-(6,7-dihydro-1-methyl-7-oxo-3-propyl-1H-pyrazolo[4,3-d]pyrimidin-5-yl)phenylsulphony]-4-methylpiperazine], the solubility ([1]; pH 6, aqueous buffer) is reported as roughly 20 µg/mL (≈ 42.1 µM).
